“And” between values parts separate entries of the source, which are not always exact repeats. Identical values can stand only once.
Test: NHP health screening: serum chemistry
Type: in vivo, rhesus macaques (Macaca mulatta)
[1] = End of study bleed, Mean of treated F animals
[2] = End of study bleed, individual treated animals
[3] = Mid-dosing bleed, Mean of treated females
[4] = Mid-dosing bleed, treated animals, individual values

Experimental: Under light-anesthesia/sedation, peripheral blood samples were collected from each animal prior to treatment and at 7 time points following. Blood analysis (CBC and serum chemistry assays) and physical exams to evaluate the health of the study animals were performed on each animal prior to the beginning of the study and also at three time points during the treatment protocol (see Supplementary data).

## Cc1c(C(=O)N[C@H](C(=O)OCC2CCOCC2)C(C)C)ccc2c1B(O)OC2 [AN15368]
[1]
  Agap: 15 Meq/L
  Alb: 3.916 G/Dl
  Alp: 92.2632 Iu/L
  Alt: 53.7368 Iu/L
  Ast: 63.5789 Iu/L
  Bun: 17.7895 Mg/Dl
  Ca: 9.232 Mg/Dl
  Chol: 138.105 mg/dL
  Ck: 2260.42 Iu/L
  Cl: 109.526 Meq/L
  Crea: 0.7289 Mg/Dl
  Fe: 111.895 µg/dL
  Ggt: 45 Iu/L
  Glob: 2.684 G/Dl
  Gluc: 62.2105 Mg/Dl
  K: 3.584 Meq/L
  Ldh: 581.684 Iu/L
  Na: 147.474 Meq/L
  Osmo: 284.105 Mosm/Kg
  Phos: 3.284 Mg/Dl
  Tbil: 0.2074 Mg/Dl
  Tco2: 26.6842 Meq/L
  Tibc: 363.263 µg/dL
  Tp: 6.589 G/Dl
  Trig: 78.7895 Mg/Dl
[2]
  Agap: 18 Meq/L and 14 Meq/L and 15 Meq/L and 13 Meq/L and 17 Meq/L and 16 Meq/L
  Alb: 4.2 G/Dl and 3.6 G/Dl and 3.9 G/Dl and 3.5 G/Dl and 4 G/Dl and 3.3 G/Dl and 2.9 G/Dl and 4.4 G/Dl and 3.8 G/Dl and 4.7 G/Dl and 4.3 G/Dl
  Alp: 132 Iu/L and 94 Iu/L and 68 Iu/L and 54 Iu/L and 70 Iu/L and 117 Iu/L and 84 Iu/L and 65 Iu/L and 131 Iu/L and 60 Iu/L and 92 Iu/L and 150 Iu/L and 113 Iu/L and 97 Iu/L and 63 Iu/L and 80 Iu/L and 71 Iu/L and 89 Iu/L and 76 Iu/L
  Alt: 39 Iu/L and 36 Iu/L and 27 Iu/L and 30 Iu/L and 87 Iu/L and 53 Iu/L and 95 Iu/L and 29 Iu/L and 76 Iu/L and 195 Iu/L and 45 Iu/L and 25 Iu/L and 70 Iu/L and 69 Iu/L and 18 Iu/L and 22 Iu/L
  Ast: 34 Iu/L and 33 Iu/L and 18 Iu/L and 23 Iu/L and 28 Iu/L and 35 Iu/L and 32 Iu/L and 29 Iu/L and 21 Iu/L and 199 Iu/L and 392 Iu/L and 24 Iu/L and 25 Iu/L and 203 Iu/L and 16 Iu/L
  Bun: 19 Mg/Dl and 14 Mg/Dl and 15 Mg/Dl and 17 Mg/Dl and 18 Mg/Dl and 16 Mg/Dl and 13 Mg/Dl and 38 Mg/Dl and 29 Mg/Dl and 11 Mg/Dl
  Ca: 9.6 Mg/Dl and 9.1 Mg/Dl and 8.7 Mg/Dl and 9.3 Mg/Dl and 9.5 Mg/Dl and 9.2 Mg/Dl and 8.8 Mg/Dl and 8.5 Mg/Dl and 8.2 Mg/Dl and 9.7 Mg/Dl and 9.4 Mg/Dl and 10.1 Mg/Dl
  Chol: 127 mg/dL and 152 mg/dL and 153 mg/dL and 132 mg/dL and 115 mg/dL and 168 mg/dL and 197 mg/dL and 162 mg/dL and 129 mg/dL and 141 mg/dL and 101 mg/dL and 85 mg/dL and 158 mg/dL and 126 mg/dL and 118 mg/dL and 151 mg/dL and 136 mg/dL and 110 mg/dL
  Ck: 224 Iu/L and 407 Iu/L and 173 Iu/L and 274 Iu/L and 432 Iu/L and 485 Iu/L and 1737 Iu/L and 198 Iu/L and 506 Iu/L and 146 Iu/L and 14833 Iu/L and 15016 Iu/L and 403 Iu/L and 468 Iu/L and 205 Iu/L and 374 Iu/L and 6914 Iu/L and 290 Iu/L and 124 Iu/L and 171 Iu/L
  Cl: 111 Meq/L and 110 Meq/L and 109 Meq/L and 107 Meq/L and 104 Meq/L and 108 Meq/L and 112 Meq/L
  Crea: 0.7 Mg/Dl and 0.59 Mg/Dl and 0.62 Mg/Dl and 0.68 Mg/Dl and 0.76 Mg/Dl and 0.63 Mg/Dl and 0.77 Mg/Dl and 0.78 Mg/Dl and 0.71 Mg/Dl and 0.75 Mg/Dl and 1.07 Mg/Dl and 0.83 Mg/Dl and 0.58 Mg/Dl and 0.57 Mg/Dl and 0.74 Mg/Dl and 0.85 Mg/Dl and 0.66 Mg/Dl
  Fe: 161 µg/dL and 147 µg/dL and 112 µg/dL and 151 µg/dL and 121 µg/dL and 108 µg/dL and 127 µg/dL and 95 µg/dL and 137 µg/dL and 110 µg/dL and 23 µg/dL and 34 µg/dL and 87 µg/dL and 133 µg/dL and 143 µg/dL and 32 µg/dL and 183 µg/dL and 103 µg/dL and 93 µg/dL
  Ggt: 49 Iu/L and 44 Iu/L and 32 Iu/L and 38 Iu/L and 45 Iu/L and 53 Iu/L and 43 Iu/L and 48 Iu/L and 60 Iu/L and 51 Iu/L and 47 Iu/L and 30 Iu/L and 41 Iu/L and 67 Iu/L
  Glob: 2.4 G/Dl and 3.1 G/Dl and 2.5 G/Dl and 2.6 G/Dl and 2.8 G/Dl and 2.9 G/Dl and 2.7 G/Dl and 3.3 G/Dl and 3.2 G/Dl and 2.3 G/Dl and 2.2 G/Dl
  Gluc: 77 Mg/Dl and 54 Mg/Dl and 69 Mg/Dl and 48 Mg/Dl and 57 Mg/Dl and 50 Mg/Dl and 62 Mg/Dl and 56 Mg/Dl and 65 Mg/Dl and 75 Mg/Dl and 83 Mg/Dl and 64 Mg/Dl and 58 Mg/Dl and 73 Mg/Dl and 55 Mg/Dl and 63 Mg/Dl
  K: 3.5 Meq/L and 4 Meq/L and 3.4 Meq/L and 3.3 Meq/L and 3.6 Meq/L and 3.7 Meq/L and 3.9 Meq/L and 2.9 Meq/L and 3.8 Meq/L and 4.1 Meq/L
  Ldh: 508 Iu/L and 636 Iu/L and 140 Iu/L and 492 Iu/L and 348 Iu/L and 387 Iu/L and 493 Iu/L and 399 Iu/L and 281 Iu/L and 157 Iu/L and 1914 Iu/L and 2200 Iu/L and 274 Iu/L and 247 Iu/L and 194 Iu/L and 1688 Iu/L and 241 Iu/L and 292 Iu/L and 122 Iu/L
  Na: 148 Meq/L and 145 Meq/L and 149 Meq/L and 146 Meq/L and 147 Meq/L
  Osmo: 286 Mosm/Kg and 278 Mosm/Kg and 284 Mosm/Kg and 285 Mosm/Kg and 280 Mosm/Kg and 291 Mosm/Kg and 283 Mosm/Kg and 282 Mosm/Kg
  Phos: 3.1 Mg/Dl and 3.5 Mg/Dl and 3.7 Mg/Dl and 2.5 Mg/Dl and 4.3 Mg/Dl and 4.5 Mg/Dl and 4.2 Mg/Dl and 3 Mg/Dl and 2.4 Mg/Dl and 2.3 Mg/Dl and 3.4 Mg/Dl and 3.2 Mg/Dl and 2.7 Mg/Dl and 3.3 Mg/Dl and 4.8 Mg/Dl and 4 Mg/Dl
  Tbil: 0.17 Mg/Dl and 0.1 Mg/Dl and 0.12 Mg/Dl and 0.16 Mg/Dl and 0.45 Mg/Dl and 0.41 Mg/Dl and 0.15 Mg/Dl and 0.14 Mg/Dl and 0.84 Mg/Dl and 0.19 Mg/Dl
  Tco2: 23 Meq/L and 25 Meq/L and 26 Meq/L and 27 Meq/L and 30 Meq/L and 31 Meq/L and 28 Meq/L and 29 Meq/L and 24 Meq/L
  Tibc: 337 µg/dL and 401 µg/dL and 353 µg/dL and 346 µg/dL and 309 µg/dL and 409 µg/dL and 351 µg/dL and 396 µg/dL and 388 µg/dL and 371 µg/dL and 299 µg/dL and 267 µg/dL and 357 µg/dL and 410 µg/dL and 392 µg/dL and 358 µg/dL and 376 µg/dL and 424 µg/dL and 347 µg/dL and 320 µg/dL
  Tp: 6.5 G/Dl and 6.7 G/Dl and 6.4 G/Dl and 6.8 G/Dl and 6.3 G/Dl and 6.9 G/Dl and 6.6 G/Dl and 6 G/Dl and 6.1 G/Dl and 6.2 G/Dl
  Trig: 66 Mg/Dl and 105 Mg/Dl and 88 Mg/Dl and 84 Mg/Dl and 101 Mg/Dl and 120 Mg/Dl and 124 Mg/Dl and 77 Mg/Dl and 61 Mg/Dl and 137 Mg/Dl and 20 Mg/Dl and 24 Mg/Dl and 50 Mg/Dl and 111 Mg/Dl and 31 Mg/Dl and 141 Mg/Dl and 27 Mg/Dl
[3]
  Agap: 15.1667 Meq/L
  Alb: 3.839 G/Dl
  Alp: 98.7222 Iu/L
  Alt: 44.8889 Iu/L
  Ast: 27.4444 Iu/L
  Bun: 14.2778 Mg/Dl
  Ca: 9.439 Mg/Dl
  Chol: 138.5 mg/dL
  Ck: 456.778 Iu/L
  Cl: 110.167 Meq/L
  Crea: 0.7289 Mg/Dl
  Fe: 141.278 µg/dL
  Ggt: 49.6667 Iu/L
  Glob: 3.072 G/Dl
  Gluc: 63.0556 Mg/Dl
  K: 3.633 Meq/L
  Ldh: 249.389 Iu/L
  Na: 148.5 Meq/L
  Osmo: 284.778 Mosm/Kg
  Phos: 2.8 Mg/Dl
  Tbil: 0.1683 Mg/Dl
  Tco2: 26.8889 Meq/L
  Tibc: 368.167 µg/dL
  Tp: 6.906 G/Dl
  Trig: 81.6111 Mg/Dl
[4]
  Agap: 16 Meq/L and 17 Meq/L and 13 Meq/L and 15 Meq/L and 14 Meq/L
  Alb: 3.9 G/Dl and 3.6 G/Dl and 3.8 G/Dl and 3.4 G/Dl and 3.5 G/Dl and 4.3 G/Dl and 4.1 G/Dl and 3.7 G/Dl and 4 G/Dl
  Alp: 114 Iu/L and 109 Iu/L and 79 Iu/L and 146 Iu/L and 91 Iu/L and 93 Iu/L and 84 Iu/L and 108 Iu/L and 131 Iu/L and 72 Iu/L and 88 Iu/L and 136 Iu/L and 116 Iu/L and 65 Iu/L and 75 Iu/L and 90 Iu/L
  Alt: 46 Iu/L and 63 Iu/L and 42 Iu/L and 89 Iu/L and 50 Iu/L and 33 Iu/L and 67 Iu/L and 24 Iu/L and 27 Iu/L and 69 Iu/L and 29 Iu/L and 22 Iu/L and 35 Iu/L and 40 Iu/L and 55 Iu/L and 44 Iu/L and 56 Iu/L
  Ast: 40 Iu/L and 24 Iu/L and 28 Iu/L and 29 Iu/L and 25 Iu/L and 26 Iu/L and 33 Iu/L and 34 Iu/L and 20 Iu/L and 27 Iu/L and 15 Iu/L and 30 Iu/L and 23 Iu/L
  Bun: 15 Mg/Dl and 16 Mg/Dl and 13 Mg/Dl and 12 Mg/Dl and 14 Mg/Dl and 11 Mg/Dl and 20 Mg/Dl
  Ca: 9.7 Mg/Dl and 9.6 Mg/Dl and 9.1 Mg/Dl and 9.3 Mg/Dl and 9 Mg/Dl and 9.2 Mg/Dl and 10 Mg/Dl and 9.8 Mg/Dl and 9.5 Mg/Dl
  Chol: 180 mg/dL and 175 mg/dL and 134 mg/dL and 115 mg/dL and 124 mg/dL and 127 mg/dL and 158 mg/dL and 141 mg/dL and 125 mg/dL and 122 mg/dL and 138 mg/dL and 154 mg/dL and 140 mg/dL and 113 mg/dL and 133 mg/dL and 148 mg/dL and 151 mg/dL and 119 mg/dL
  Ck: 427 Iu/L and 338 Iu/L and 199 Iu/L and 479 Iu/L and 314 Iu/L and 233 Iu/L and 738 Iu/L and 1619 Iu/L and 353 Iu/L and 416 Iu/L and 382 Iu/L and 210 Iu/L and 648 Iu/L and 548 Iu/L and 237 Iu/L and 332 Iu/L and 197 Iu/L and 552 Iu/L and 206 Iu/L
  Cl: 110 Meq/L and 109 Meq/L and 111 Meq/L and 108 Meq/L and 107 Meq/L and 113 Meq/L and 112 Meq/L
  Crea: 0.56 Mg/Dl and 0.91 Mg/Dl and 0.71 Mg/Dl and 0.69 Mg/Dl and 0.85 Mg/Dl and 0.97 Mg/Dl and 0.62 Mg/Dl and 0.77 Mg/Dl and 0.78 Mg/Dl and 0.74 Mg/Dl and 0.76 Mg/Dl and 0.58 Mg/Dl and 0.65 Mg/Dl and 0.64 Mg/Dl and 0.68 Mg/Dl
  Fe: 185 µg/dL and 145 µg/dL and 129 µg/dL and 168 µg/dL and 126 µg/dL and 124 µg/dL and 150 µg/dL and 181 µg/dL and 159 µg/dL and 113 µg/dL and 170 µg/dL and 84 µg/dL and 111 µg/dL and 169 µg/dL and 125 µg/dL and 154 µg/dL and 155 µg/dL
  Ggt: 46 Iu/L and 64 Iu/L and 42 Iu/L and 53 Iu/L and 58 Iu/L and 67 Iu/L and 48 Iu/L and 30 Iu/L and 52 Iu/L and 31 Iu/L and 40 Iu/L and 35 Iu/L and 82 Iu/L and 37 Iu/L and 50 Iu/L and 65 Iu/L

Reference: publication PMC9519446, “Discovery of an Orally Active Benzoxaborole Prodrug Effective in the Treatment of Chagas Disease in Non-human Primates” (Nature microbiology, 2022)
